Laboratory results taken from ChEMBL document CHEMBL1201862, “PubChem BioAssay data set” (2004).
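Five concentrations, 48 hours, 96-well plates. GI50: concentration for 50% inhibition of growth.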 The source made the active and inactive calls. Cut-off read from the data, not from the text of the source: active = GI50 up to about 1.1 µM and inactive = higher. Where a SMILES comes first, the peptide text is derived from it. [ ]: non-standard residue; d: D form. Phe(4-NO2) = N[CH](Cc1ccc([N+](=O)[O-])cc1)C(=O)O

Tests used:
Test in all cases: NCI anticancer screen, dose series, 48 h
786-0 = system: 786-0
COLO 205 = system: COLO 205
DU-145 = system: DU-145
HCT-116 = system: HCT-116
MCF7 = system: MCF7
MDA-MB-435 = system: MDA-MB-435
NCI-H460 = system: NCI-H460
NCI-H522 = system: NCI-H522
NCI/ADR-RES = system: NCI/ADR-RES
OVCAR-8 = system: OVCAR-8
PC-3 = system: PC-3
RPMI-8226 = system: RPMI-8226
RXF 393 = system: RXF 393
SF-295 = system: SF-295
SF-539 = system: SF-539
SK-MEL-2 = system: SK-MEL-2
SK-OV-3 = system: SK-OV-3
TK-10 = system: TK-10
UACC-257 = system: UACC-257
BT-549 = system: BT-549

Measured: GI50

COc1ccc(C2C(C)C(=O)C(C)C(c3ccc(OC)cc3)N2N=O)cc1 (stereo unspecified)
inactive: 786-0 84.3 µM | COLO 205 > 550 µM | DU-145 213 µM | HCT-116 127 µM | MCF7 372 µM | MDA-MB-435 166 µM | NCI-H460 > 659 µM | NCI-H522 > 427 µM | NCI/ADR-RES 258 µM | OVCAR-8 340 µM | PC-3 253 µM | RPMI-8226 > 1000 µM | RXF 393 40.3 µM | SF-295 126 µM | SF-539 > 75.5 µM | SK-MEL-2 215 µM | SK-OV-3 257 µM | TK-10 90.6 µM | UACC-257 > 703 µM

CCOC(=O)Nc1ccc(C)c(NC(=O)OCC)c1
inactive: 786-0 > 100 µM | COLO 205 > 100 µM | DU-145 > 100 µM | HCT-116 > 100 µM | MCF7 > 100 µM | MDA-MB-435 > 100 µM | NCI-H460 > 100 µM | NCI-H522 > 100 µM | NCI/ADR-RES > 100 µM | OVCAR-8 > 100 µM | PC-3 > 100 µM | RPMI-8226 > 100 µM | RXF 393 > 100 µM | SF-295 > 100 µM | SF-539 > 100 µM | SK-MEL-2 > 100 µM | SK-OV-3 > 100 µM | TK-10 > 100 µM | UACC-257 > 100 µM

CCCCOC(=O)NC(Nc1ccc(S(=O)(=O)Nc2ccc(OC)nn2)cc1)(C(F)(F)F)C(F)(F)F
inactive: 786-0 > 100 µM | COLO 205 > 100 µM | DU-145 > 100 µM | HCT-116 > 100 µM | MCF7 > 100 µM | MDA-MB-435 > 100 µM | NCI-H460 > 100 µM | NCI/ADR-RES > 100 µM | OVCAR-8 > 100 µM | PC-3 > 100 µM | RPMI-8226 > 100 µM | RXF 393 > 100 µM | SF-295 > 100 µM | SF-539 > 100 µM | SK-OV-3 > 100 µM | TK-10 > 100 µM | UACC-257 > 100 µM

O=C1CCC2CCC1C2 (stereo unspecified)
inactive: 786-0 > 100 µM | COLO 205 > 100 µM | DU-145 > 100 µM | HCT-116 > 100 µM | MCF7 > 100 µM | MDA-MB-435 > 100 µM | NCI-H460 > 100 µM | NCI/ADR-RES > 100 µM | OVCAR-8 > 100 µM | PC-3 > 100 µM | RPMI-8226 > 100 µM | RXF 393 96.4 µM | SF-295 > 100 µM | SF-539 > 100 µM | SK-MEL-2 > 100 µM | SK-OV-3 > 100 µM | TK-10 > 100 µM | UACC-257 > 100 µM

CN(N=O)C(=O)Nc1c[nH]c(=O)[nH]c1=O
inactive: 786-0 > 100 µM | COLO 205 > 100 µM | DU-145 > 100 µM | HCT-116 > 100 µM | MCF7 > 100 µM | MDA-MB-435 > 100 µM | NCI-H522 > 100 µM | NCI/ADR-RES > 100 µM | OVCAR-8 > 100 µM | PC-3 > 100 µM | SF-295 > 100 µM | SF-539 > 100 µM | SK-MEL-2 > 100 µM | SK-OV-3 > 100 µM | TK-10 > 100 µM | UACC-257 > 100 µM

OC1(c2ccccc2)C2CCN(CC2)C1CN1CCOCC1 (stereo unspecified)
inactive: 786-0 > 100 µM | COLO 205 > 100 µM | DU-145 > 100 µM | HCT-116 > 100 µM | MCF7 > 100 µM | MDA-MB-435 > 100 µM | NCI-H460 > 100 µM | NCI-H522 > 100 µM | NCI/ADR-RES > 100 µM | OVCAR-8 > 100 µM | PC-3 > 100 µM | RPMI-8226 > 100 µM | RXF 393 > 100 µM | SF-295 > 100 µM | SF-539 > 100 µM | SK-MEL-2 > 100 µM | SK-OV-3 > 100 µM | TK-10 > 100 µM | UACC-257 > 100 µM

CN1C(=O)C(CCO)(C(C)(C)C)c2ccccc21 (stereo unspecified)
inactive: 786-0 > 100 µM | COLO 205 > 100 µM | DU-145 > 100 µM | HCT-116 > 100 µM | MCF7 > 100 µM | MDA-MB-435 > 100 µM | NCI-H460 > 100 µM | NCI/ADR-RES > 100 µM | OVCAR-8 > 100 µM | PC-3 > 100 µM | RPMI-8226 > 100 µM | RXF 393 > 100 µM | SF-295 > 100 µM | SK-MEL-2 > 100 µM | SK-OV-3 > 100 µM | UACC-257 > 100 µM

O=C(/C=C/c1cccs1)c1ccc(Cl)s1
inactive: 786-0 > 10 µM | COLO 205 > 10 µM | DU-145 56 µM | HCT-116 18.2 µM | MCF7 17.2 µM | MDA-MB-435 21.9 µM | NCI-H460 72.8 µM | NCI/ADR-RES > 100 µM | OVCAR-8 37.9 µM | PC-3 40.6 µM | RPMI-8226 17.5 µM | SF-295 37.8 µM | SF-539 28.6 µM | SK-MEL-2 > 100 µM | SK-OV-3 67 µM | TK-10 > 100 µM | UACC-257 39.8 µM

COc1c(C(=O)/C(=N/Nc2ccc(C(=O)O)cc2)C(C)=O)c(O)cc2occc12
inactive: 786-0 > 100 µM | COLO 205 > 100 µM | DU-145 > 100 µM | HCT-116 > 100 µM | MCF7 > 100 µM | MDA-MB-435 46.7 µM | NCI-H460 82 µM | NCI-H522 51.3 µM | NCI/ADR-RES > 100 µM | OVCAR-8 > 100 µM | PC-3 > 100 µM | RPMI-8226 > 100 µM | RXF 393 51.2 µM | SF-295 82.8 µM | SF-539 > 100 µM | SK-MEL-2 > 100 µM | SK-OV-3 > 100 µM | TK-10 15.6 µM | UACC-257 > 100 µM

CCCCCCCCCC/C=C/CC(=O)SCCNC(=O)CCNC(=O)[C@@H](O)C(C)(C)COP(=O)(O)OP(=O)(O)OCC1OC(n2cnc3c(N)ncnc32)C(O)C1OP(=O)(O)O (stereo partly specified)
inactive: 786-0 > 10 µM | COLO 205 > 10 µM | DU-145 > 10 µM | HCT-116 > 10 µM | MCF7 > 10 µM | MDA-MB-435 > 10 µM | NCI-H460 > 10 µM | NCI/ADR-RES > 10 µM | OVCAR-8 > 10 µM | PC-3 > 10 µM | RPMI-8226 > 10 µM | RXF 393 > 10 µM | SF-295 > 10 µM | SF-539 > 10 µM | SK-OV-3 > 10 µM | TK-10 > 10 µM | UACC-257 > 10 µM

O=C(c1ccncc1)C1C(=O)c2ccccc2C1C1(O)c2ccccc2CC1C(O)c1ccncc1 (stereo unspecified)
inactive: 786-0 39.9 µM | BT-549 45.9 µM | COLO 205 47.6 µM | HCT-116 28.2 µM | MCF7 39.6 µM | MDA-MB-435 16.9 µM | NCI-H460 34.2 µM | NCI-H522 31.3 µM | NCI/ADR-RES 46.6 µM | OVCAR-8 60 µM | RPMI-8226 19 µM | RXF 393 39.6 µM | SF-295 31.4 µM | SF-539 77.6 µM | SK-MEL-2 23.6 µM | SK-OV-3 7.96 µM | TK-10 90.8 µM | UACC-257 52.7 µM

O=c1[nH]c(=O)n(C2CC(O)C(CO)O2)cc1/N=N/NCCCc1ccccc1 (stereo unspecified)
inactive: 786-0 > 100 µM | COLO 205 > 100 µM | DU-145 > 100 µM | HCT-116 > 100 µM | MCF7 > 100 µM | MDA-MB-435 > 100 µM | NCI-H460 > 100 µM | NCI/ADR-RES > 100 µM | OVCAR-8 > 100 µM | PC-3 > 100 µM | RXF 393 > 100 µM | SF-295 > 100 µM | SF-539 > 100 µM | SK-MEL-2 > 100 µM | SK-OV-3 > 100 µM | TK-10 > 100 µM | UACC-257 > 100 µM

CCOC(=O)Cc1cc(=O)[nH]c(-n2[nH]c(C)c(CCO)c2=O)n1
inactive: 786-0 > 100 µM | COLO 205 > 100 µM | DU-145 > 100 µM | HCT-116 > 100 µM | MCF7 > 100 µM | MDA-MB-435 > 100 µM | NCI-H460 > 100 µM | NCI-H522 > 100 µM | NCI/ADR-RES > 100 µM | OVCAR-8 > 100 µM | PC-3 > 100 µM | RPMI-8226 > 100 µM | RXF 393 > 100 µM | SF-295 > 100 µM | SF-539 > 100 µM | SK-MEL-2 > 100 µM | SK-OV-3 > 100 µM | TK-10 > 100 µM | UACC-257 > 100 µM

CC(c1ccccc1)n1c2ccccc2c2c(N)ncnc21 (stereo unspecified)
inactive: 786-0 14.9 µM | DU-145 18.6 µM | HCT-116 21.5 µM | MCF7 20.7 µM | MDA-MB-435 16.9 µM | NCI-H460 24.3 µM | NCI-H522 13.6 µM | NCI/ADR-RES 20.4 µM | OVCAR-8 17.1 µM | PC-3 17.7 µM | RPMI-8226 42.4 µM | RXF 393 18.3 µM | SF-295 17 µM | SF-539 17.1 µM | SK-MEL-2 23.7 µM | SK-OV-3 14.2 µM | TK-10 17.1 µM | UACC-257 17.2 µM

COC(=O)CCC(NC(=O)C(CCC(=O)OC)NC(=O)C(CCC(=O)OC)NC(=O)C(CCC(=O)OC)NC(=O)C(CCC(=O)OC)NC(=O)C(Cc1ccc([N+](=O)[O-])cc1)NC(=O)C(CCC(=O)OC)NC(=O)C(CCC(=O)OC)NC(=O)C(CCC(=O)OC)NC(=O)C(CCC(=O)OC)NC(=O)C(CCC(=O)OC)NC(C)=O)C(N)=O (stereo unspecified) (Ac-E(OMe)E(OMe)E(OMe)E(OMe)E(OMe)[Phe(4-NO2)]E(OMe)E(OMe)E(OMe)E(OMe)E(OMe)-NH2; configuration not given here)
inactive: 786-0 > 100 µM | COLO 205 > 100 µM | DU-145 > 100 µM | HCT-116 > 100 µM | MCF7 > 100 µM | MDA-MB-435 > 100 µM | NCI-H460 > 100 µM | NCI-H522 > 100 µM | NCI/ADR-RES > 100 µM | OVCAR-8 > 100 µM | RPMI-8226 > 100 µM | RXF 393 > 100 µM | SF-295 31.4 µM | SK-MEL-2 > 100 µM | SK-OV-3 99.3 µM | TK-10 > 100 µM | UACC-257 > 100 µM
